Data reported in US7704995B2 (Exelixis, Inc., priority 2003, dated 2010).

Experiments:
Assay in all cases: Kinase specificity assay (33P phosphoryl transfer, LCCA or AlphaScreen)
Type in all cases: biochemical
[1] = target: T1, PKCe (Homo sapiens, UniProt Q02156); details: ATP close to KM; read-out: PKCe inhibition, IC50
T1 sequence (Q02156 1-737): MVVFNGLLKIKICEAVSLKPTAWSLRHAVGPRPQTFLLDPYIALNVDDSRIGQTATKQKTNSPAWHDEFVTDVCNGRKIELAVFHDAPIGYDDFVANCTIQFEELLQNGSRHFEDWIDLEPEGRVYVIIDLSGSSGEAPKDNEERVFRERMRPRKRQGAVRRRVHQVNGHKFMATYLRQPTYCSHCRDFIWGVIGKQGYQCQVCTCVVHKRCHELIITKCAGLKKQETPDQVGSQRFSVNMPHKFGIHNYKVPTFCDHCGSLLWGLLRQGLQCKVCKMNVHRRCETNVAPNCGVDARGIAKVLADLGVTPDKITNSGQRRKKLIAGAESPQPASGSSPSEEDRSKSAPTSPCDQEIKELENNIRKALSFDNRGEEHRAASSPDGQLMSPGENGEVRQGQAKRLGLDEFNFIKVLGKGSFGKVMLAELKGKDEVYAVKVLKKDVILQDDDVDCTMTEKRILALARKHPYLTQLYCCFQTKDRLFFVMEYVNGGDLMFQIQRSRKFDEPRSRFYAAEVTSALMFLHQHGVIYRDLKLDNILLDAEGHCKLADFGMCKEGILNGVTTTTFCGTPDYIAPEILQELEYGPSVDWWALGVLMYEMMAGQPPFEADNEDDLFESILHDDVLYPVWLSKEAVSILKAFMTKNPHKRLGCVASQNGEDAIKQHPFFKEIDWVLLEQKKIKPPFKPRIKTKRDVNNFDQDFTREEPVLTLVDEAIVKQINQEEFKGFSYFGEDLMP
Experimental: (§1) Kinase activity and compound inhibition are investigated using one or more of the three assay formats described below. The ATP concentrations for each assay are selected to be close to the Michaelis-Menten constant (KM) for each individual kinase. Dose-response experiments are performed at 10 different inhibitor concentrations in a 384-well plate format. The data are fitted to the following four-parameter equation: Y=Min+(Max−Min)/(1+(X/IC50)^H) where Y is the observed signal, X is the inhibitor concentration, Min is the background signal in the absence of enzyme (0% enzyme activity), Max is the signal in the absence of inhibitor (100% enzyme activity), IC50 is the inhibitor concentration at 50% enzyme inhibition and H represents the empirical Hill's slope to measure the cooperativity. Typically H is close to unity. ^33P Phosphoryl Transfer Assay:
(§2) Greiner 384-well white, clear bottom, high binding plates are coated with 2 μg/well of protein or peptide substrate in a 50 μL volume overnight at ambient temperature. The coating buffer typically contains 40 μg/mL substrate, 22.5 mM Na2CO3, 27.5 mM NaHCO3, 150 mM NaCl and 3 mM NaN3. The coating solution is aspirated and the plates are washed once with 50 μL of assay buffer and padded dry. Subsequently compounds and enzymes are mixed with γ^33P-ATP (3.3 μCi/nmol) in a total volume of 20 uL in suitable assay buffers. The mixture is incubated at ambient temperature for 1.5-2.5 hrs and terminated by aspiration using a Molecular Devices EMBLA 96-head plate washer. The plates are subsequently washed 6-12 times with PBST or TBS buffer. Scintillation fluid (50 μl/well) is then added, the plates are sealed and activity assessed by liquid scintillation spectrometry using a Perkin Elmer MicroBeta TriLux.
(§3) In the LCCA assays, kinase activity is measured as the percent ATP consumed following the kinase reaction using luciferase-luciferin-coupled chemiluminescence. Greiner 384-well white, clear bottom, medium binding plates are used for LCCA. Briefly, the kinase reaction is initiated by mixing compounds, ATP and kinase in a 20 uL volume. The mixture is incubated at ambient temperature for 2-4 hrs. At the end of the kinase reaction, a 20 uL luciferase-luciferin mix is added and the chemiluminescent signal is read using a Wallac Victor^2 reader. The luciferase-luciferin mix consists of 50 mM HEPES, pH 7.8, 8.5 ug/mL oxalic acid (pH 7.8), 5 (or 50) mM DTT, 0.4% Triton X-100, 0.25 mg/mL coenzyme A, 63 uM AMP, 28 ug/mL luciferin and 40,000 units of light/mL luciferase. For the LCCA assays, total ATP consumption has been standardized to 25-45% and the IC50 values correlates well with those determined by radiometric assays.
(§4) AlphaScreen technology is a proximity assay which utilizes the increase in fluorescent signal when donor and acceptor beads are close in proximity. Biotinylated poly(Glu,Tyr) 4:1 is used as the kinase substrate, in conjunction with streptavidin-coated donor beads and anti-phosphortyrosine antibody PY100-coated acceptor beads. Upon phosphorylation, the peptide substrate can bind to both donor and acceptor beads giving rise to an increase in fluorescence. Compounds, ATP, biotinylated poly(Glu, Tyr) and kinases are mixed in a volume of 20 uL for 1 hr at ambient temperature using Greiner 384-well white clear bottom medium binding plates. Following incubation a 10 uL solution containing […] AlphaScreen beads, 75 mM Hepes, pH 7.4, 300 mM NaCl, 120 mM EDTA, 0.3% BSA and 0.03% Tween-20 is added to each well. After 2-16 hr incubation of the beads, plates are read in a Perkin Elmer AlphaQuest reader. The IC50 values correlates well with those of radiometric assays.

[2] = target: Flt4 (Homo sapiens, UniProt P35916); details: ATP close to KM; read-out: Flt4 inhibition, IC50
Sequence of Flt4 (P35916 25-1363): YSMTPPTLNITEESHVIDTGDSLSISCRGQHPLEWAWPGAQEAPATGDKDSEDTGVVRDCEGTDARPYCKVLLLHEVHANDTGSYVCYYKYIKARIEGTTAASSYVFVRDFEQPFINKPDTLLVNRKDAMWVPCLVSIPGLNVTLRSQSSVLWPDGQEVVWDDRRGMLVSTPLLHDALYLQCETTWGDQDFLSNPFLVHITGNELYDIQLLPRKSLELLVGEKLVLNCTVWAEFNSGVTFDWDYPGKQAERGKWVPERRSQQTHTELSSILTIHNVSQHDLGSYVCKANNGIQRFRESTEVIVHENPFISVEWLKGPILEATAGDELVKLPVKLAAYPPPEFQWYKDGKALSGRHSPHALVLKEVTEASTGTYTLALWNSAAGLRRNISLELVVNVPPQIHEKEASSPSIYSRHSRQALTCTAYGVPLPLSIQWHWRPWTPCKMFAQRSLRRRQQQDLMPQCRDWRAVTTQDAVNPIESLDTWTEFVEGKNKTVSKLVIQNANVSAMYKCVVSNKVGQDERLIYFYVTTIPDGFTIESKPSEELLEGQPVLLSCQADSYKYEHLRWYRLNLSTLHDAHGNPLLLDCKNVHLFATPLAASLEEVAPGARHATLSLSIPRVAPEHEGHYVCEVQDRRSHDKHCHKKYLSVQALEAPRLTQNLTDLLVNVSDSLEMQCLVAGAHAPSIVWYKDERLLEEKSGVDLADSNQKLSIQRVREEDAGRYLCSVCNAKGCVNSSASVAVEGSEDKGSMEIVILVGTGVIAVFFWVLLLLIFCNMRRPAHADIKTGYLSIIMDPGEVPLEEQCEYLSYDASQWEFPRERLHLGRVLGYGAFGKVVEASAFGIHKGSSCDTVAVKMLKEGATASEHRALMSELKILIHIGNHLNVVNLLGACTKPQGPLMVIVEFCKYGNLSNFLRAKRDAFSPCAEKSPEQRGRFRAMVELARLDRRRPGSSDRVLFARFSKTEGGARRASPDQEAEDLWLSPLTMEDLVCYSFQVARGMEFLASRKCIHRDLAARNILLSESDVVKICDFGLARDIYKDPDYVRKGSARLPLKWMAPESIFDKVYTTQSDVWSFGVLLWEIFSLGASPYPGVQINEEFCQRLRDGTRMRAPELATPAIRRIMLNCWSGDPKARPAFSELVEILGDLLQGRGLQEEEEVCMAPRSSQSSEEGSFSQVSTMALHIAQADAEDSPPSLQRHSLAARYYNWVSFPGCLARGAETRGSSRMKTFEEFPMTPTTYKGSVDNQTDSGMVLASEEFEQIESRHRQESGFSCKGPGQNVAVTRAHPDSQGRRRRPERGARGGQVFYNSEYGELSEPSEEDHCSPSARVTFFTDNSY
Experimental: as §1, §2, §3, §4

[3] = target: CLK1 (Homo sapiens, UniProt P49759); details: ATP close to KM; read-out: CLK1 inhibition, IC50
Sequence of CLK1 (P49759 whole entry): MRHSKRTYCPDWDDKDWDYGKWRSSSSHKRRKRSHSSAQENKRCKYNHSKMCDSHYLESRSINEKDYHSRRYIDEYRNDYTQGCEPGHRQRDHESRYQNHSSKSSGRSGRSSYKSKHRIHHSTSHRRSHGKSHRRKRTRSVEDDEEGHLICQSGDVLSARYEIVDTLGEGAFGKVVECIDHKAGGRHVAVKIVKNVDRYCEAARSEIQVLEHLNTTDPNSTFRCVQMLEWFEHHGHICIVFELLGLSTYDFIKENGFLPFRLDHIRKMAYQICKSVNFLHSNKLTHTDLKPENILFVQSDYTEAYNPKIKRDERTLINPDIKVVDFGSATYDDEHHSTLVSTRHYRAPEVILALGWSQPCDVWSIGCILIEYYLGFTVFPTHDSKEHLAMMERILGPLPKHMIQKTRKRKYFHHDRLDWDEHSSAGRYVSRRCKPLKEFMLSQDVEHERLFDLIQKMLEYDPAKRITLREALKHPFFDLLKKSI
Experimental: as §1, §2, §3, §4

[4] = target: Fyn (Homo sapiens, UniProt P06241); details: ATP close to KM; read-out: Fyn inhibition, IC50
Sequence of Fyn (P06241 whole entry): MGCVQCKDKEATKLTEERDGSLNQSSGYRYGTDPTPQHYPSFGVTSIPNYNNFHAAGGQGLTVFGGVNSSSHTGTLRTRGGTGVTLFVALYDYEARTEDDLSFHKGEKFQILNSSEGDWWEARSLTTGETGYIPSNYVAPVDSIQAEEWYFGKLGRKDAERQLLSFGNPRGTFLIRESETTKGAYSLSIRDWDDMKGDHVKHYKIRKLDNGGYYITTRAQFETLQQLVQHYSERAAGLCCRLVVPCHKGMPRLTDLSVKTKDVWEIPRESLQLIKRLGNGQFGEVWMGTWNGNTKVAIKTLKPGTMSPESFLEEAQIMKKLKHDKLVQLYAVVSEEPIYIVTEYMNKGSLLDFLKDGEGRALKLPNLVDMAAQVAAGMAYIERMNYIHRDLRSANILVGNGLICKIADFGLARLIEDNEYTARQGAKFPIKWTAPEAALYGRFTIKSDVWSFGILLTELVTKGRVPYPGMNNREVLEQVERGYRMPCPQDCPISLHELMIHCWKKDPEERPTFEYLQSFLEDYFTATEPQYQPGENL
Experimental: as §1, §2, §3, §4

[5] = target: FGFR1 (Homo sapiens, UniProt P11362); details: ATP close to KM; read-out: FGFR1 inhibition, IC50
Sequence of FGFR1 (P11362 22-822): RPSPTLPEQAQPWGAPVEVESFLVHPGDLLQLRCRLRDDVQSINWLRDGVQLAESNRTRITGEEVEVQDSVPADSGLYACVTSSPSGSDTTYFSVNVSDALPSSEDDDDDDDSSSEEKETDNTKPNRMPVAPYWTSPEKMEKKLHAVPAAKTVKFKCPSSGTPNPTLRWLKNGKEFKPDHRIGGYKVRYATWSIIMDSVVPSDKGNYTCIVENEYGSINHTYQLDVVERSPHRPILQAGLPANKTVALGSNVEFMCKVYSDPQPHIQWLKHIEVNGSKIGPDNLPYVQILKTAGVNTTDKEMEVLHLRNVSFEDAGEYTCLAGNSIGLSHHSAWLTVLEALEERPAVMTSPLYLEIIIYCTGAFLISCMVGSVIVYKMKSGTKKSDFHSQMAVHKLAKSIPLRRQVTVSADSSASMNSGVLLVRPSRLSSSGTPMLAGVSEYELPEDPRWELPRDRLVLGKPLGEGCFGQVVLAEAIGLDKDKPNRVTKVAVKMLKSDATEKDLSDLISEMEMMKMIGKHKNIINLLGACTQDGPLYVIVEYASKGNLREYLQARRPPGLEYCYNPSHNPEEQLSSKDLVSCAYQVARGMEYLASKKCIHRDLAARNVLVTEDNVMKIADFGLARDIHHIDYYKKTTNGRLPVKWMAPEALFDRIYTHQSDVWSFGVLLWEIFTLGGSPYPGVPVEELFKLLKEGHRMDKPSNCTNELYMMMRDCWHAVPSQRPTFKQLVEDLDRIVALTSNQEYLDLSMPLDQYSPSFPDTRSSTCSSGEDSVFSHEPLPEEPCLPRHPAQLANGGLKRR
Experimental: as §1, §2, §3, §4

[6] = target: Cdc2 (Homo sapiens, UniProt P06493); details: ATP close to KM; read-out: Cdc2 inhibition, IC50
Sequence of Cdc2 (P06493 whole entry): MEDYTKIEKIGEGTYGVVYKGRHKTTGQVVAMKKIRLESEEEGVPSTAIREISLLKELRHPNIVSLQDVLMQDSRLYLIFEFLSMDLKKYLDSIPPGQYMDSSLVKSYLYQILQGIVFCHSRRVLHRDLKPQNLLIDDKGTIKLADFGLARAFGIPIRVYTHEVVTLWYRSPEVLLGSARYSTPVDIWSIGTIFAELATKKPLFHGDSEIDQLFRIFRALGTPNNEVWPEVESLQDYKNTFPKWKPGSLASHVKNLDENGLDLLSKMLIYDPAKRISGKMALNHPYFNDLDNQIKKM
Sequence of Cdc2 (P14635 whole entry partner): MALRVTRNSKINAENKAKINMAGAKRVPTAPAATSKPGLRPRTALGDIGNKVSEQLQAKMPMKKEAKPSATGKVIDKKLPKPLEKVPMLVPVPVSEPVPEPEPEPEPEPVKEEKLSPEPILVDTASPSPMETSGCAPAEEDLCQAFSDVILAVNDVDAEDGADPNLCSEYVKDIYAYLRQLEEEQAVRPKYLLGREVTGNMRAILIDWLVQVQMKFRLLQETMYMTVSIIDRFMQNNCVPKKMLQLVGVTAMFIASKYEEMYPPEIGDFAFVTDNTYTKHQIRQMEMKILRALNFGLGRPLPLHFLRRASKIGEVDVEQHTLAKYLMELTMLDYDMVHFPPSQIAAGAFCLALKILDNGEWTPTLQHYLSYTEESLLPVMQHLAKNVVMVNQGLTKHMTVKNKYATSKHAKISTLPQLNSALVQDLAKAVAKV
Experimental: as §1, §2, §3, §4

NC(=O)c1nc(-c2cccc3ccccc23)cnc1N [Example 2, 3-Amino-6-naphthalen-1-ylpyrazine-2-carboxamide]
IC50 [1]: ≥ 10 µM | IC50 [2]: < 0.05 µM | IC50 [3]: 1 to 10 µM | IC50 [4]: 1 to 10 µM | IC50 [5]: 1 to 10 µM | IC50 [6]: ≥ 10 µM
